{"source": "paper PMC11943507", "about": "(Marine Drugs, 2025)", "key": {"hNav1.1 [1]": {"biological_target": "T1, hNav1.1 (Homo sapiens, UniProt P35498)", "assay_type": "cell-based"}, "hNav1.1 [2]": {"biological_target": "T1, hNav1.1", "assay": "cell-based", "assay_type": "cell-based"}, "hNav1.1 [3]": {"biological_target": "T1, hNav1.1", "assay_type": "cell-based", "remark": "listed apart in the source"}, "hNav1.1 [4]": {"biological_target": "T1, hNav1.1", "assay_type": "cell-based", "remark": "listed apart in the source"}, "hNav1.1 [5]": {"biological_target": "T1, hNav1.1"}, "Nav1.1": {"test_system": "Nav1.1", "conditions": "cited from earlier work"}, "Nav1.6": {"test_system": "Nav1.6", "conditions": "cited from earlier work"}, "Nav1.7": {"test_system": "Nav1.7", "conditions": "cited from earlier work"}}, "note": "Values joined by “and” are separate entries in the source; they are usually repeats but may differ in a detail not shown here. Identical values can stand only once. “Also recorded” adds a separate entry of the source. Like-named read-outs stand apart in the source and are kept apart here.", "data": [{"smiles": "C=C1[C@@H](O)[C@@H]2O[C@]3(CC[C@H](/C=C/[C@@H](C)[C@@H]4CC(C)=C[C@@]5(O[C@H](C[C@@](C)(O)C(=O)O)CC[C@H]5O)O4)O3)CC[C@H]2O[C@@H]1[C@@H](O)C[C@H](C)[C@H]1O[C@@]2(CC[C@H]1C)OCCC[C@H]2C", "note": "[DTX1, dinophysistoxin 1]", "values": [{"measurement": "fluorescence intensity stimulated by 30 μM veratridine, inhibition mode concentration-response", "setting": "hNav1.1 [1]", "result": "not significantly inhibited"}, {"measurement": "fluorescence signal in agonist mode concentration-response", "setting": "hNav1.1 [2]", "result": "no significant increase"}, {"measurement": "inhibitory effect in initial screening", "setting": "hNav1.1 [3]", "result": "no significant inhibition; also recorded: did not exhibit any potential agonist or inhibitor activity"}, {"measurement": "agonist activity in initial screening", "setting": "hNav1.1 [4]", "result": "did not exhibit any potential agonist or inhibitor activity"}]}, {"smiles": "NC1=N[C@H](O)[C@H]2[C@H]3O[C@]4(O)O[C@@H]([C@@H](O)[C@@]2(N1)[C@@H]4O)[C@]3(O)CO", "note": "[TTX, tetrodotoxin]", "values": [{"measurement": "IC50", "setting": "hNav1.1 [1]", "result": 0.0184, "unit": "µM"}, {"measurement": "inhibition of the channel-opening effect of 30 μM veratridine", "setting": "hNav1.1 [1]", "result": "almost completely inhibited"}, {"measurement": "suppression of hNav1.1 current signal", "setting": "hNav1.1 [5]", "result": "almost completely suppressed"}, {"measurement": "IC50", "setting": "hNav1.1 [5]; read-out: IC50 determined by patch clamp", "result": "0.00327 µM and ~0.00327 µM"}, {"measurement": "IC50", "setting": "Nav1.1", "result": "[…]"}]}, {"smiles": "COc1ccc(C(=O)O[C@H]2CC[C@@]3(C)[C@@H]4CC[C@H]5[C@]6(O)C[C@H](O)[C@@]7(O)[C@@H](CN8C[C@@H](C)CC[C@H]8[C@@]7(C)O)[C@]6(O)C[C@@]53O[C@]24O)cc1OC", "note": "[veratridine]", "values": [{"measurement": "peak amplitude of the sodium current", "setting": "Nav1.6", "result": "enhanced"}, {"measurement": "peak current", "setting": "Nav1.6", "result": "suppressed"}, {"measurement": "fluorescence signal relative to the maximum fluorescence signal", "setting": "hNav1.1 [2]", "result": "approximately 80%"}, {"measurement": "EC50", "setting": "hNav1.1 [2]; EC50", "result": "~24 µM and 24 µM"}, {"measurement": "EC50", "setting": "Nav1.7; read-out: EC50, tail and sustained currents", "result": 9.53, "unit": "µM"}, {"measurement": "IC50", "setting": "Nav1.7; read-out: IC50, inhibitory effect on the peak current", "result": 18.4, "unit": "µM"}]}]}
